Columns and labels:
[1] = test system: Ab15421 (rabbit polyclonal antibody to posaconazole); experiment: Specificity of the immunoassay: cross-reactivity to antifungal triazoles; assay type: binding; details: Ab15421 with POS-IV G6PDH; for Cross-reaction of Ab15421 with other azole antifungals (in words): human serum samples, 10 μg/mL; for Cross-reactivity (%): triazole 20 μg/ml added to Posaconazole 10 μg/ml vs Posaconazole 10 μg/ml control, human serum
Source text: Antibodies obtained using any of the disclosed techniques are screened or purified not only for their ability to react with posaconazole, but for a low cross-reactivity with potential interfering substances. “Cross-reactivity” may be determined in a quantitative immunoassay by establishing a standard curve using known dilutions of the target analyte, posaconazole. The standard curve is then used to calculate the apparent concentration of the interfering substance present in various known amounts in samples assayed under similar condition. The cross-reactivity can be calculated as the apparent concentration divided by the actual concentration multiplied by 100. A certain immunoassay for determining cross-reactivity is a homogeneous enzyme immunoassay using a wild type G6PDH as described in U.S. Pat. No. 3,817,837 or mutant G6PDH engineered to contain a cysteine per subunit as described in U.S. Pat. Nos. 6,033,890, 6,090,567 and 6,455,288. Furthermore, the cross-reactivity can be determined in the same type of immunoassay in which the antibody will ultimately be used.
To human serum negative for antifungal azoles was added posaconazole dissolved in methanol to achieve a concentration of 10 μg/mL of posaconazole. […]
The assay was calibrated as described in Example 8 using Enzyme Conjugate Reagent NB051:154 containing conjugate POS-IV G6PDH and Antibody Reagent NB051:154 containing Ab15421. The testing was performed on the HITACHI 917. The samples were quantified from the calibration curve generated.

[2] = test system: Ab15421 (rabbit polyclonal antibody to posaconazole); experiment: Homogeneous enzyme immunoassay calibration curve (POS-IV G6PDH conjugate and Ab15421) in pooled human serum; assay type: binding; details: HITACHI 917, 340 nm
Protocol: Ab15421 was used to measure enzyme activity, generate a calibration curve, and evaluate assay precision, accuracy and specificity. Ab15421 was added into the antibody diluent to prepare the antibody reagent. The antibody reagent included Ab15421 as prepared above, buffer, stabilizers, preservatives, and the substrates for the enzyme conjugate nicotinamide adenine dinucleotide (NAD^+) and glucose-6-phosphate. Enzyme conjugate POS-IV G6PDH was added into the conjugate reagent to prepare the enzyme conjugate reagent. The enzyme conjugate reagent included the conjugate, buffer, stabilizers and preservatives. Enzyme conjugate POS-IV G6PDH was used with Ab15421 in examples below.
Ab15421 was added into the antibody diluent to prepare the antibody reagent. The antibody reagent included Ab15421 as prepared above, buffer, stabilizers, preservatives, and the substrates for the enzyme conjugate NAD^+ and glucose 6 phosphate. Enzyme conjugate POS-IV G6PDH or a label protein including alkaline phosphatase, β-galactosidase and horse radish peroxidase was added into the conjugate reagent to prepare the enzyme conjugate reagent. The enzyme conjugate reagent included the conjugate, buffer, stabilizers and preservatives.
The posaconazole antibodies and enzyme conjugates were used in a homogeneous assay format to detect posaconazole samples. Posaconazole containing sample was incubated with antibody reagent followed by the addition of the enzyme conjugate reagent. The enzyme conjugate activity decreased upon binding to Ab15421. The enzyme conjugate, which was not bound to Ab15421, catalyzed the oxidation of glucose 6-phosphate (G6P). The oxidation of G6P was coupled with the reduction of NAD^+ to NADH, which was measured at 340 nm. The change in the absorbance at 340 nm was measured spectrophotometrically. The posaconazole concentration in a sample was measured in terms of G6PDH activity. The increase in the rate at 340 nm was due to the formation of NADH and was proportional to the enzyme conjugate activity. An assay curve was generated using posaconazole added into serum negative for posaconazole. The assay rate increased with increasing the concentration of free drug in the sample.
Posaconazole was dissolved in methanol to give a stock solution of 1000 μg/mL. Pooled human serum was aliquoted in 10 mL portions. Posaconazole stock solution was added to the aliquots of human serum in preparing a series of known concentrations of posaconazole calibrators ranging from 0 to 16 μg/mL. The assay was performed using Enzyme Conjugate Reagent NB051:154 containing conjugate POS-IV G6PDH and Antibody Reagent NB051:154 containing Ab15421. Calibration curves were generated on the HITACHI 917 automated clinical chemistry analyzer, as described in Example 7 by measuring each level in duplicate.

[3] = cited from earlier work

| Reaction Rate (mA/min) Average of Duplicates ([2]; Posaconazole Conc. 1.0 μg/mL in pooled human serum) [mA/min] | Reaction Rate (mA/min) Average of Duplicates ([2]; Posaconazole Conc. 2.0 μg/mL in pooled human serum) [mA/min] | Reaction Rate (mA/min) Average of Duplicates ([2]; Posaconazole Conc. 4.0 μg/mL in pooled human serum) [mA/min] | Reaction Rate (mA/min) Average of Duplicates ([2]; Posaconazole Conc. 8.0 μg/mL in pooled human serum) [mA/min] | Reaction Rate (mA/min) Average of Duplicates ([2]; Posaconazole Conc. 16.0 μg/mL in pooled human serum) [mA/min] | SMILES | Cross-reaction of Ab15421 with other azole antifungals (in words) [1] | Cross-reactivity (%) [1] [%] | Increase of bioavailability on coadministration with food ([3]; coadministration with food) | Bioavailability (in words) ([3]; oral, saturable absorption) |
| --- | --- | --- | --- | --- | --- | --- | --- | --- | --- |
|  |  |  |  |  | OC(Cn1cncn1)(Cn1cncn1)c1ccc(F)cc1F [Fluconazole] | did not crossreact | <0.01 |  |  |
|  |  |  |  |  | C[C@@H](c1ncncc1F)[C@](O)(Cn1cncn1)c1ccc(F)cc1F [Voriconazole] | did not crossreact | <0.01 |  |  |
| 165.7 | 235.5 | 304.7 | 371.7 | 409.4 | CC[C@@H]([C@H](C)O)n1ncn(-c2ccc(N3CCN(c4ccc(OC[C@@H]5CO[C@@](Cn6cncn6)(c6ccc(F)cc6F)C5)cc4)CC3)cc2)c1=O [Posaconazole, 4-[4-[4-[4-[[(3R,5R)-5-(2,4-difluorophenyl)tetrahydro-5-(1H 1,2,4-triazol-1-ylmethyl)-3-furanyl]methoxy]phenyl]-1-piperazinyl]phenyl]-2-[(1S,2S)-1-ethyl-2-hydroxypropyl]-2,4-dihydro-3H-1,2,4-triazol-3-one] |  |  | up to 4 fold | low and highly variable bioavailability |

Source: US9920136B2, “Posaconazole immunoassays” (ARK Diagnostics, Inc., priority 2013, dated 2018)
